Experimental data reported in EP1174152B1, “Inclusion complex of an opioid peptide with cyclodextrin” (COUNCIL OF SCIENTIFIC AND INDUSTRIAL RESEARCH, priority 2000, dated 2002).

Columns and labels:
[1] = system: leucine amino peptidase; details: enzyme hydrolysis with leucine amino peptidase; cited from earlier work
[2] = system: rhesus monkeys; experiment: 30 days toxicity study by subcutaneous route in rhesus monkey; format: in vivo; details: once daily for 30 consecutive days, 3.75, 7.5 and 15 mg/kg
Description: (§1) 30 days toxicity study of L-Tyrosyl-D-alanyl-glycyl-N-methylphenylanyl-glycyl-isopropylamide in rat and rhesus monkey by subcutaneous route.
(§2) Compound L-Tyrosyl-D-alanyl-glycyl-N-methylphenylalanyl-glycyl-isopropylamide dissolved in saline was given daily by subcutaneous route to groups of rats (n=10 males and 10 females in each group) and rhesus monkeys (n=2 males and 2 females in each group) once daily for 30 consecutive days. The dose levels used in rats were 0 0, 7.5, 15.0 and 30.0 mg/kg and in monkeys 0.0, 3.75, 7.5 and 15 mg/kg. Dose levels were selected on the basis of rat ED of 3.0 mg/kg and extrapolation thereof in the monkey. […]
(§3) Body weights (weekly in rats, initial and day 30 in monkeys), daily food (rat and monkeys) and water (rat only) consumption and parameters of hematology, urinalysis and blood biochemistry of the animals was recorded All the animals were sacrificed at the end of 30 days Necropsy was performed and histophathological examination of all the important organs and tissues were done. […]
(§4) During necropsy examination of the external surface of the body, all orifices, and the cranial thoracic and abdominal cavities and their contents was performed. […] Liver, kidneys, adrenals, brain heart lungs, spleen and gonads were weighed, and their rdative weights were also calculated. […]

[3] = system: rats; experiment: 30 days toxicity study by subcutaneous route in rat; format: in vivo; details: once daily for 30 consecutive days, 7.5, 15.0 and 30.0 mg/kg
Description: as §1, §2, §3, §4

Row | Compound | half life [1] [min] | 30-day toxicity study outcome [2] | 30-day toxicity study outcome [3]
1 | Leu-enkephalin | 45 | – | –
2 | CC(C)NC(=O)CNC(=O)[C@H](Cc1ccccc1)N(C)C(=O)CNC(=O)[C@@H](C)NC(=O)[C@@H](N)Cc1ccc(O)cc1 [L-Tyrosyl-D-alanyl-glycyl-N-methylphenylalanyl-glycyl-isopropylamide] | – | found safe | found safe
